The values that follow come from patent US5807900A, “Method for identifying compounds having increased activity for the repair of skin photodamage” (priority 1995, dated 1998).

In experiment [1] the target is T1, human RAR-α (Homo sapiens, UniProt P10276).
T1 sequence (P10276 201-462 limits assumed): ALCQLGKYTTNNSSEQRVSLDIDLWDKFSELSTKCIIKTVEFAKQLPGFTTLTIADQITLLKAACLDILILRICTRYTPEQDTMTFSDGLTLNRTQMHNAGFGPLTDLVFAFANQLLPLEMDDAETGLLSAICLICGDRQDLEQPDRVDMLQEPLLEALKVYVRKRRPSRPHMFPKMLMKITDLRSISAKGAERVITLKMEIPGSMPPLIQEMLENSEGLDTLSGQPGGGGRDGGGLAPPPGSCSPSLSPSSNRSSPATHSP
The experiment in a line: Binding assay for human RAR-α (displacement of 3H-retinoic acid). The settings on record: 3H-retinoic acid displacement, mean of two or more experiments.

A further experiment has as its target T2, human RAR-β (Homo sapiens, UniProt P10826).
T2 sequence (P10826 201-455 limits assumed): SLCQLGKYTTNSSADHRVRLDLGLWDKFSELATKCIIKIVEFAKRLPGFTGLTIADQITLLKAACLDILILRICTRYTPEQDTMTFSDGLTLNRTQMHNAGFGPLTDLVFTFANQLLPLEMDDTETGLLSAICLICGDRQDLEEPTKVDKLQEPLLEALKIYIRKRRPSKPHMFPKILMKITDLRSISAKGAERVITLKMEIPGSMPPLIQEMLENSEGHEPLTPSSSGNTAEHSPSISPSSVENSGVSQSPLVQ
The experiment in a line: Binding assay for human RAR-β (displacement of 3H-retinoic acid). The settings on record: 3H-retinoic acid displacement, mean of two or more experiments. As for the experimental part: (§1) Binding Assay for Human RAR-α, RAR-β and RAR-γ
(§2) Binding assays were performed essentially as described in Apfel et al., supra. […] Extracts containing the receptors were used in a competitive binding assay which depends upon the ability of increasing concentrations of a retinoid to displace ^3 H-retinoic acid. In a typical assay, 0.2 to 0.4 picomoles of receptors were incubated in 0.2 ml of 50 mM Tris HCl, pH 7.4, 50 mM NaCl, 2 mM EDTA (binding buffer) containing 0.5% gelatin, 1% DMSO, 2-5 nM ^3 H-retinoic acid and various concentrations of unlabelled retinoids. After 3-5 hours at 22° C., 0.15 ml of chilled charcoal/dextran suspension (5% Norit A/0.5% dextran T-40 in binding buffer) were added for 15 min at 4° C. The tubes were centrifuged at 12,000 x g for 15 minutes and the supernates counted. Binding parameters were calculated from competition curves using the Ligand program.
(§3) Data are means of values obtained from two or more individual experiments, rounded off to two significant figures. […] When binding inhibition at 10,000 nM is less than 50%, >10,000 is indicated.

Experiment [2] deals with human RAR-γ. The experiment is described as follows: Binding assay for human RAR-γ (displacement of 3H-retinoic acid). The settings on record: 3H-retinoic acid displacement, mean of two or more experiments. As to the method: as §1, §2, §3
The subject of experiment [3] is human RAR-α. The experiment in a line: RAR-α transactivation assay (SeAP reporter, COS cells). It counts as cell-based. The note with it: for Transactivation % max (α): relative to all-trans-retinoic acid at same concentration (1,000 nM or 10,000 nM). As for the experimental part:
(§4) Retinoid Receptor Transactivation Assays
(§5) Transactivation assays were performed essentially as described in Apfel et al., supra. For the RAR transcription activation test system, the secreted alkaline phosphatase gene (SeAP) is used as reporter. To have a screening system specific for the transfected receptor, chimeric receptors are used. These contain an estrogen receptor DNA binding domain and therefore recognize the estrogen response element (ERE) which no endogenous RAR's in mammalian cells will recognize.
(§6) The transactivation assay system has been adapted to 96-well plates and most steps are done by a robot. Briefly, on day 1 confluent COS cells are subcultured at an equivalent density onto 96-well plates in DMEM+10% charcoal stripped serum. On day 2 DNA is prepared for transfection by mixing the following: 10 μg vit-TK-SeAP reporter plasmid, 2 μg RAR expression plasmid, 2 μg transfection control plasmid and 30 μl Transfectam (lipopolyamine transfection reagent). Cells are washed twice with serum-free medium and DNA/transfectam mix added. After 1 hour medium is removed and replaced with growth medium containing test retinoids. On day 4 or 5 the culture supernatant is removed, heated to 65° for 5 min to inactivate nonspecific phosphatases, and diluted 1:10 with water. 20 μl samples are added to 100 μl of phosphatase substrate in buffer. After 1 hour at 37° the luminescence is measured in a 96-well luminometer.
(§7) 100 μl of β-galactosidase substrate is added to the adherent cells. Plates are incubated for 1 hour at 37° and the supernatants transferred to separate plates for quantitation of β-galactosidase activity by luminescence measurement. Transactivation results are expressed as the ratio of SeAP/β-galactosidase activity for each well to correct for well-to-well variation in transfection efficiency.
(§8) Data are means of values obtained from two or more individual experiments, rounded off to two significant figures. […] The maximum transactivation activity is determined from the plot where increasing dosage provides little or no additional activity, i.e., where the plot begins to level off. For active retinoids the highest concentration tested is 1000 nM.

The next experiment deals with RAR-β. The experiment is described as follows: RAR-β transactivation assay (SeAP reporter, COS cells). Type of experiment: cell-based, human. The note with it: for Transactivation % max (β): relative to all-trans-retinoic acid at same concentration (1,000 nM or 10,000 nM). As for the experimental part:
as §4, §5, §6, §7, §8

Experiment [4] concerns human RAR-γ. The experiment in a line: RAR-γ transactivation assay (SeAP reporter, COS cells). Type of experiment: cell-based. The settings on record: for Transactivation % max (γ): relative to all-trans-retinoic acid at same concentration (1,000 nM or 10,000 nM). As for the experimental part:
as §4, §5, §6, §7, §8

A further experiment concerns photodamaged skin. The experiment is described as follows: Measurement of photodamage repair in the hairless mouse model. It counts as in vivo, Hairless mice (female, HRS/J strain). The settings on record: for Photodamage repair activity (scale 0 to 4): UVB-irradiated, topical in acetone three times per week, three doses. The text has this:
The ability of a composition of the invention to induce repair of photodamaged skin may be determined by any conventional means. One conventional method of determining the ability of a topical composition to repair photodamaged skin is the hairless mouse model described by Kligman et al., supra. […] In this model, repair is defined by the appearance of a zone of normalized dermis extending from the epidermis down to the layer of compressed elastin. The extent of repair is reflected by the width of this zone. […] The average width of the repair zone is then calculated by dividing the area by the length of the histological section that was measured.
The width of the repair zone is […] an activity value of 4.
Measurement of Photodamage Repair
Hairless mice (female, HRS/J strain, Jackson Labs, 5-7 weeks old at the start of the experiments) were housed in yellow light and irradiated three times per week with a bank of 8 Westinghouse Sunlamps (FS120) placed about 20 cm above the animals. Daily doses were 0.03 J/cm^2 for two weeks, 0.06 J/cm2 for two weeks and 0.08 J/cm2 thereafter. The radiation dose is controlled by an International Light Model IL844A Phototherapy Exposure Control and a model SEE240 detector.
To effect repair of the dermal damage, the UVB irradiation was discontinued and the animals were divided into groups of approximately eight and treated three times per week with various concentrations of the retinoids dissolved in acetone. Stock solutions are made up freshly every week in subdued light at concentrations such that the dose is delivered in 100 μl volume and applied topically with a plastic pipette to an area of about 10 cm^2 on the back of the animal. All dosing was done under yellow light. A control group treated with acetone alone was included.
Two-cm strips of dorsal skin were taken longitudinally down the center of the irradiated (and treated) area. Elastin fibers were stained with Luna's aldehyde fuchsin and collagen by Van Gieson. In this model, repair is defined by the appearance of a normalized dermis extending from the epidermis down to the layer of compressed elastin. The extent of repair is reflected by the width of this zone. […] Twenty-four fields each of which, at 100X magnification, represents a section of tissue 0.57 mm long, are examined and the area calculated. The results are reported as the average area per field in mm^2. Thus the average width of the repair zone can be obtained by dividing this average area by 0.57 mm. […] All microscopic fields are included in the calculations of average area (or width). Data are analyzed by Student's t-test.
Compounds are tested at three doses and an approximate ED50 calculated.

A further experiment deals with photoaged skin. The note with it: human, topical, literature studies; cited from earlier work.
Where [5] appears, read: COS cells, 50% of the compound's own maximum, set to highest concentration tested (usually 1000 nM) if no maximum reached, read-out: Transactivation ED50 (α).
The mark [6] stands for this setting: COS cells, 50% of the compound's own maximum, set to highest concentration tested (usually 1000 nM) if no maximum reached, read-out: Transactivation ED50 (β).
[7] abbreviates: RAR-γ, COS cells, 50% of the compound's own maximum, set to highest concentration tested (usually 1000 nM) if no maximum reached, read-out: Transactivation ED50 (γ).

Where two headings read alike, the source gives them in different places.

In the case of `CCS(=O)(=O)c1ccc(/C=C(\C)c2ccc3c(c2)C(C)(C)CCC3(C)C)cc1` [I], the IC50 on human RAR-α [1], at human RAR-β and at human RAR-γ [2] was > 10 µM in each case. The EC50 with human RAR-α [3] (setting [5]), in the experiment on RAR-β (setting [6]) and in the experiment on human RAR-γ [4] (setting [7]) was 1 µM throughout. The “Transactivation % max (α)” value with human RAR-α [3] worked out at 10%. Moreover, the “Transactivation % max (β)” value in the experiment on RAR-β is listed as 21%. Besides, in the experiment on human RAR-γ [4] (RAR-γ), the “Transactivation % max (γ)” value is listed as 21%. For the same compound, the “Photodamage repair activity (scale 0 to 4)” value (shortened to “Photodamage repair activity”) in the experiment on photodamaged skin is 3 (an ED50 of 1 μg or less (highly active)).
Consider `CCCCCOc1cc2c(cc1/C=C/c1ccc(C(=O)O)cc1)C(C)(C)CCC2(C)C` [P], for which the results for the IC50 at human RAR-α [1], on human RAR-β and on human RAR-γ [2] were > 10 µM, 7.6 µM and 0.67 µM, respectively. Further, the EC50 in the experiment on human RAR-α [3] (setting [5]) came to 1 µM; with RAR-β (setting [6]), 0.15 µM; with human RAR-γ [4] (setting [7]) it was 0.029 µM. In the experiment on human RAR-α [3], the “Transactivation % max (α)” value is reported as 16%. Besides, the “Transactivation % max (β)” value in the experiment with RAR-β is 60%. Further, the “Transactivation % max (γ)” value with human RAR-γ [4] (RAR-γ) is recorded as 90%. Besides, the “Photodamage repair activity” value with photodamaged skin was found to be 4.
For `CC1=C(/C=C/C(C)=C/C=C/C(C)=C\C(=O)O)C(C)(C)CCC1` [B, 13-cis retinoic acid, reference compound], the EC50 in the experiment with human RAR-α [3] (read-out: Transactivation ED50 (α), COS cells, 50% of the compound's own maximum, set to highest concentration tested (usually 1000 nM) if no maximum reached) was found to be […]; with RAR-β (read-out: Transactivation ED50 (β), COS cells, 50% of the compound's own maximum, set to highest concentration tested (usually 1000 nM) if no maximum reached), […]; in the experiment with human RAR-γ [4], […]. Moreover, the “Transactivation % max (α)” value in the experiment with human RAR-α [3] was […]. Moreover, the “Transactivation % max (β)” value in the experiment with RAR-β was […]. Further, in the experiment on human RAR-γ [4] (RAR-γ), the “Transactivation % max (γ)” value came out at […]. In the experiment with photodamaged skin, the “Photodamage repair activity” value is reported as 2 (an ED50 of 10 μg). For the same compound, the “ED50 for photodamage repair” value in the experiment on photodamaged skin (μg of test compound applied to 10 cm^2 of skin area, standard retinoid) turned out to be 10 µg. Besides, the “Clinical improvement of photodamaged/photoaged skin” value with photoaged skin is “efficacy of isotretinoin in photodamage has been demonstrated”.
Consider `CCCCCCCOc1cc2c(cc1/C(C)=C/c1ccc(C(=O)O)cc1)C(C)(C)CCS2(=O)=O` [Compound L, p-[(E)-2-[3',4'-dihydro-4',4'-dimethyl-7'-(heptyloxy)-2'H-1-benzothiopyran-6'-yl]propenyl]benzoic acid 1',1'-dioxide, reference compound], for which the IC50 came to 0.07 µM at human RAR-α [1], 4.7 µM on human RAR-β and 4.2 µM on human RAR-γ [2]. Also, the EC50 with human RAR-α [3] (setting [5]), with RAR-β (setting [6]) and in the experiment with human RAR-γ [4] (setting [7]) was 1 µM in each case. Besides, in the experiment on human RAR-α [3], the “Transactivation % max (α)” value was determined as 14%. The “Transactivation % max (β)” value in the experiment on RAR-β is recorded as 14%. In the experiment on human RAR-γ [4] (RAR-γ), the “Transactivation % max (γ)” value is given as 18%. Besides, the “Photodamage repair activity” value with photodamaged skin is given as 0.
For the compound `C/C(=C\c1ccccc1)c1ccc2c(c1)C(C)(C)CCC2(C)C` [H], the IC50 on human RAR-α [1], at human RAR-β and at human RAR-γ [2] was > 10 µM each time. For the same compound, the EC50 with human RAR-α [3] (setting [5]), in the experiment on RAR-β (setting [6]) and in the experiment on human RAR-γ [4] (setting [7]) was 1 µM throughout. Moreover, the “Transactivation % max (α)” value in the experiment with human RAR-α [3] turned out to be 12%. For the same compound, in the experiment on RAR-β, the “Transactivation % max (β)” value came to 10%. Moreover, in the experiment with human RAR-γ [4] (RAR-γ), the “Transactivation % max (γ)” value was 19%. Also, the “Photodamage repair activity” value in the experiment on photodamaged skin turned out to be 0.
